Assay results: the NIST ThermoML archive (doi:10.1021/acs.jced.8b00015)
± gives the expanded uncertainty stated by the source.

Key:
[1] = xn = mol fraction of the nth substance listed; conditions: 298.15 K, 101.3 kPa, Liquid
[2] = Crystal; DTA

Compound	mass density ([1]; Pycnometric method, x2 = 0.143)	mass density ([1]; Pycnometric method, x1 = 0.2)	mass density ([1]; Pycnometric method, x1 = 0.25)	other results
CN(CCO)CCO [N-methyldiethanolamine] + C[N+](C)(C)CCO.[Cl-]	1046.8 ± 21 kg/m3			mass density ([1]; Pycnometric method, x2 = 0.125): 1053.8 ± 21 kg/m3
OCCNCCO [diethanolamine] + CCCC[N+](CCCC)(CCCC)CCCC.[Br-]	1092.7 ± 22 kg/m3			
CCCC[N+](CCCC)(CCCC)CCCC.[Br-] [tetrabutylammonium bromide] + CN(CCO)CCO		1056.9 ± 21 kg/m3	1051.3 ± 21 kg/m3	
OCCNCCO [diethanolamine]				Normal melting temperature [2]: 27.00 ± 0.5 °C
CCCC[N+](CCCC)(CCCC)CCCC.[Br-] [tetrabutylammonium bromide] + OCCO		1072.7 ± 22 kg/m3	1069.8 ± 21 kg/m3	mass density ([1]; Pycnometric method, x1 = 0.333): 1065.8 ± 21 kg/m3
C[N+](C)(C)CCO.[Cl-] [choline chloride] + OCCO				mass density ([1]; Vibrating tube method, x1 = 0.333): 1116.8 ± 22 kg/m3
CCCC[N+](CCCC)(CCCC)CCCC.[Br-] [tetrabutylammonium bromide] + OCCOCCO		1081.8 ± 22 kg/m3	1078.2 ± 22 kg/m3	mass density ([1]; Pycnometric method, x1 = 0.333): 1075.4 ± 22 kg/m3
C[N+](C)(C)CCO.[Cl-] [choline chloride] + OCCOCCO		1112.1 ± 22 kg/m3	1116.9 ± 22 kg/m3	
OCCNCCO [diethanolamine] + C[N+](C)(C)CCO.[Cl-]	1098.4 ± 22 kg/m3			
